From PubChem BioAssay (NCI)
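All cell lines were grown in 96-well plates and treated with compound for 48 hours. TGI is the concentration that stops growth completely.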

tested on: 786-0 renal; test: NCI-60 cell line screen, 48 h

First: C=CCn1c(=O)ccn(/C(=C/C(=O)OCC)C(=O)OCC)c1=O
Second: COc1c(C)c(OCC=C(C)C)cc(CO)c1CO
The TGI of the first is lower: 11.7 µM for the first, greater than 100 µM for the second.

[N-]=[N+]=NC1(c2ccccc2)C(=O)c2cccc3c2N(CCC3)C1=O (centres undefined) and COc1c2occc2c(N)c2ccc(=O)oc12 cannot be ordered by TGI: greater than 100 µM for the first, greater than 100 µM for the second.

Going from CC(C)(C)OC(=O)NC(CSSCC(NC(=O)OC(C)(C)C)C(=O)O)C(=O)O (centres undefined) to CC(C)N1CCN(c2ccc(OCC3COC(Cn4cncn4)(c4ccc(Cl)cc4Cl)O3)cc2)CC1 (centres undefined), the TGI falls from greater than 100 µM to 14.5 µM.

tested on: A498 renal; test: NCI-60 cell line screen, 48 h

First: C=CCn1c(=O)ccn(/C(=C/C(=O)OCC)C(=O)OCC)c1=O
Second: COc1c(C)c(OCC=C(C)C)cc(CO)c1CO
The TGI of the first is lower: 33.3 µM for the first, greater than 100 µM for the second.

[N-]=[N+]=NC1(c2ccccc2)C(=O)c2cccc3c2N(CCC3)C1=O (centres undefined) and COc1c2occc2c(N)c2ccc(=O)oc12 cannot be ordered by TGI: greater than 100 µM for the first, greater than 100 µM for the second.

First: CC(C)(C)OC(=O)NC(CSSCC(NC(=O)OC(C)(C)C)C(=O)O)C(=O)O (centres undefined)
Second: CC(C)N1CCN(c2ccc(OCC3COC(Cn4cncn4)(c4ccc(Cl)cc4Cl)O3)cc2)CC1 (centres undefined)
The TGI of the first is higher: greater than 100 µM for the first, 27.4 µM for the second.

tested on: A549 NSCLC; test: NCI-60 cell line screen, 48 h

First: C=CCn1c(=O)ccn(/C(=C/C(=O)OCC)C(=O)OCC)c1=O
Second: COc1c(C)c(OCC=C(C)C)cc(CO)c1CO
The TGI of the first is lower: 32.3 µM for the first, greater than 100 µM for the second.

CC(C)(C)OC(=O)NC(CSSCC(NC(=O)OC(C)(C)C)C(=O)O)C(=O)O (centres undefined) and CC(C)N1CCN(c2ccc(OCC3COC(Cn4cncn4)(c4ccc(Cl)cc4Cl)O3)cc2)CC1 (centres undefined) cannot be ordered by TGI: greater than 100 µM for the first, greater than 52 µM for the second.

In the case of COc1c2occc2c(N)c2ccc(=O)oc12, the TGI is reported as greater than 100 µM.

tested on: ACHN renal; test: NCI-60 cell line screen, 48 h

First: C=CCn1c(=O)ccn(/C(=C/C(=O)OCC)C(=O)OCC)c1=O
Second: COc1c(C)c(OCC=C(C)C)cc(CO)c1CO
The TGI of the first is lower: 13.9 µM for the first, greater than 100 µM for the second.

[N-]=[N+]=NC1(c2ccccc2)C(=O)c2cccc3c2N(CCC3)C1=O (centres undefined) and COc1c2occc2c(N)c2ccc(=O)oc12 cannot be ordered by TGI: greater than 100 µM for the first, greater than 100 µM for the second.

Going from CCc1c(O)c(O)c(C(C)=O)c2c(O)c(-c3c(C)cc4c(CC)c(O)c(O)c(C(C)=O)c4c3O)c(C)cc12 to CC(C)(C)OC(=O)NC(CSSCC(NC(=O)OC(C)(C)C)C(=O)O)C(=O)O (centres undefined), the TGI rises from 28.8 µM to greater than 100 µM.

With CC(C)N1CCN(c2ccc(OCC3COC(Cn4cncn4)(c4ccc(Cl)cc4Cl)O3)cc2)CC1 (centres undefined) the TGI was 47.1 µM.

tested on: BT-549 breast; test: NCI-60 cell line screen, 48 h

Going from C=CCn1c(=O)ccn(/C(=C/C(=O)OCC)C(=O)OCC)c1=O to COc1c(C)c(OCC=C(C)C)cc(CO)c1CO, the TGI rises from 29.3 µM to greater than 100 µM.

Going from CC(C)(C)OC(=O)NC(CSSCC(NC(=O)OC(C)(C)C)C(=O)O)C(=O)O (centres undefined) to CC(C)N1CCN(c2ccc(OCC3COC(Cn4cncn4)(c4ccc(Cl)cc4Cl)O3)cc2)CC1 (centres undefined), the TGI falls from greater than 100 µM to 30 µM.

Work on COc1c2occc2c(N)c2ccc(=O)oc12 yielded a TGI greater than 100 µM.

tested on: CAKI-1 renal; test: NCI-60 cell line screen, 48 h

First: C=CCn1c(=O)ccn(/C(=C/C(=O)OCC)C(=O)OCC)c1=O
Second: COc1c(C)c(OCC=C(C)C)cc(CO)c1CO
The TGI of the first is lower: 4.19 µM for the first, greater than 100 µM for the second.

Going from CC(C)(C)OC(=O)NC(CSSCC(NC(=O)OC(C)(C)C)C(=O)O)C(=O)O (centres undefined) to CC(C)N1CCN(c2ccc(OCC3COC(Cn4cncn4)(c4ccc(Cl)cc4Cl)O3)cc2)CC1 (centres undefined), the TGI falls from greater than 100 µM to 40.3 µM.

Work on COc1c2occc2c(N)c2ccc(=O)oc12 yielded a TGI greater than 100 µM.

tested on: CCRF-CEM leukemia; test: NCI-60 cell line screen, 48 h

First: C=CCn1c(=O)ccn(/C(=C/C(=O)OCC)C(=O)OCC)c1=O
Second: COc1c(C)c(OCC=C(C)C)cc(CO)c1CO
The TGI of the first is lower: 6.04 µM for the first, greater than 100 µM for the second.

Compared with CCc1c(O)c(O)c(C(C)=O)c2c(O)c(-c3c(C)cc4c(CC)c(O)c(O)c(C(C)=O)c4c3O)c(C)cc12, CCCC(=O)OC[n+]1ccc2c(C)c3[nH]c4ccccc4c3c(C)c2c1 is higher in TGI: 8.64 µM for the first, greater than 100 µM for the second.

Compared with CC(C)(C)OC(=O)NC(CSSCC(NC(=O)OC(C)(C)C)C(=O)O)C(=O)O (centres undefined), CC(C)N1CCN(c2ccc(OCC3COC(Cn4cncn4)(c4ccc(Cl)cc4Cl)O3)cc2)CC1 (centres undefined) is lower in TGI: greater than 100 µM for the first, 32.5 µM for the second.

In the case of COc1c2occc2c(N)c2ccc(=O)oc12, the TGI is reported as greater than 100 µM.

tested on: COLO 205 colon; test: NCI-60 cell line screen, 48 h

First: C=CCn1c(=O)ccn(/C(=C/C(=O)OCC)C(=O)OCC)c1=O
Second: COc1c(C)c(OCC=C(C)C)cc(CO)c1CO
The TGI of the first is lower: 3.97 µM for the first, greater than 100 µM for the second.

[N-]=[N+]=NC1(c2ccccc2)C(=O)c2cccc3c2N(CCC3)C1=O (centres undefined) and COc1c2occc2c(N)c2ccc(=O)oc12 cannot be ordered by TGI: greater than 100 µM for the first, greater than 100 µM for the second.

Going from CCc1c(O)c(O)c(C(C)=O)c2c(O)c(-c3c(C)cc4c(CC)c(O)c(O)c(C(C)=O)c4c3O)c(C)cc12 to CC(C)(C)OC(=O)NC(CSSCC(NC(=O)OC(C)(C)C)C(=O)O)C(=O)O (centres undefined), the TGI rises from 21.4 µM to greater than 100 µM.

CC(C)N1CCN(c2ccc(OCC3COC(Cn4cncn4)(c4ccc(Cl)cc4Cl)O3)cc2)CC1 (centres undefined) was tested, and the TGI was 3.69 µM.

tested on: DMS 114 small cell lung; test: NCI-60 cell line screen, 48 h

Compared with [N-]=[N+]=NC1(c2ccccc2)C(=O)c2cccc3c2N(CCC3)C1=O (centres undefined), CCc1c(O)c(O)c(C(C)=O)c2c(O)c(-c3c(C)cc4c(CC)c(O)c(O)c(C(C)=O)c4c3O)c(C)cc12 is lower in TGI: greater than 100 µM for the first, 18.4 µM for the second.

tested on: DU-145 prostate; test: NCI-60 cell line screen, 48 h

First: C=CCn1c(=O)ccn(/C(=C/C(=O)OCC)C(=O)OCC)c1=O
Second: COc1c(C)c(OCC=C(C)C)cc(CO)c1CO
The TGI of the first is lower: 50.2 µM for the first, greater than 100 µM for the second.

First: CC(C)(C)OC(=O)NC(CSSCC(NC(=O)OC(C)(C)C)C(=O)O)C(=O)O (centres undefined)
Second: CC(C)N1CCN(c2ccc(OCC3COC(Cn4cncn4)(c4ccc(Cl)cc4Cl)O3)cc2)CC1 (centres undefined)
The TGI of the first is higher: greater than 100 µM for the first, 31.5 µM for the second.

COc1c2occc2c(N)c2ccc(=O)oc12 gave a TGI greater than 100 µM.

tested on: EKVX NSCLC; test: NCI-60 cell line screen, 48 h

Going from C=CCn1c(=O)ccn(/C(=C/C(=O)OCC)C(=O)OCC)c1=O to COc1c(C)c(OCC=C(C)C)cc(CO)c1CO, the TGI rises from 38.2 µM to greater than 100 µM.

Going from CC(C)(C)OC(=O)NC(CSSCC(NC(=O)OC(C)(C)C)C(=O)O)C(=O)O (centres undefined) to CC(C)N1CCN(c2ccc(OCC3COC(Cn4cncn4)(c4ccc(Cl)cc4Cl)O3)cc2)CC1 (centres undefined), the TGI falls from greater than 100 µM to 30.6 µM.

COc1c2occc2c(N)c2ccc(=O)oc12 was tested, and the TGI was greater than 100 µM.

tested on: HCC-2998 colon; test: NCI-60 cell line screen, 48 h

Compared with C=CCn1c(=O)ccn(/C(=C/C(=O)OCC)C(=O)OCC)c1=O, COc1c(C)c(OCC=C(C)C)cc(CO)c1CO is higher in TGI: 31.8 µM for the first, greater than 100 µM for the second.

Compared with CC(C)(C)OC(=O)NC(CSSCC(NC(=O)OC(C)(C)C)C(=O)O)C(=O)O (centres undefined), CC(C)N1CCN(c2ccc(OCC3COC(Cn4cncn4)(c4ccc(Cl)cc4Cl)O3)cc2)CC1 (centres undefined) is lower in TGI: greater than 100 µM for the first, 21.1 µM for the second.

With COc1c2occc2c(N)c2ccc(=O)oc12 the TGI was greater than 100 µM.

tested on: HCT-116 colon; test: NCI-60 cell line screen, 48 h

C=CCn1c(=O)ccn(/C(=C/C(=O)OCC)C(=O)OCC)c1=O and COc1c(C)c(OCC=C(C)C)cc(CO)c1CO cannot be ordered by TGI: greater than 41.5 µM for the first, greater than 100 µM for the second.

Compared with CCc1c(O)c(O)c(C(C)=O)c2c(O)c(-c3c(C)cc4c(CC)c(O)c(O)c(C(C)=O)c4c3O)c(C)cc12, CC(C)(C)OC(=O)NC(CSSCC(NC(=O)OC(C)(C)C)C(=O)O)C(=O)O (centres undefined) is higher in TGI: 14.3 µM for the first, greater than 100 µM for the second.

First: COc1c2occc2c(N)c2ccc(=O)oc12
Second: CC(C)N1CCN(c2ccc(OCC3COC(Cn4cncn4)(c4ccc(Cl)cc4Cl)O3)cc2)CC1 (centres undefined)
The TGI of the first is higher: greater than 100 µM for the first, 23.4 µM for the second.

tested on: HCT-15 colon; test: NCI-60 cell line screen, 48 h

First: C=CCn1c(=O)ccn(/C(=C/C(=O)OCC)C(=O)OCC)c1=O
Second: COc1c(C)c(OCC=C(C)C)cc(CO)c1CO
The TGI of the first is lower: 6.52 µM for the first, greater than 100 µM for the second.

Going from CC(C)(C)OC(=O)NC(CSSCC(NC(=O)OC(C)(C)C)C(=O)O)C(=O)O (centres undefined) to CC(C)N1CCN(c2ccc(OCC3COC(Cn4cncn4)(c4ccc(Cl)cc4Cl)O3)cc2)CC1 (centres undefined), the TGI falls from greater than 100 µM to 26.5 µM.

With COc1c2occc2c(N)c2ccc(=O)oc12 the TGI was greater than 100 µM.

tested on: HL-60(TB) leukemia; test: NCI-60 cell line screen, 48 h

First: C=CCn1c(=O)ccn(/C(=C/C(=O)OCC)C(=O)OCC)c1=O
Second: COc1c(C)c(OCC=C(C)C)cc(CO)c1CO
The TGI of the first is lower: 3.98 µM for the first, greater than 100 µM for the second.

Going from [N-]=[N+]=NC1(c2ccccc2)C(=O)c2cccc3c2N(CCC3)C1=O (centres undefined) to CCCC(=O)OC[n+]1ccc2c(C)c3[nH]c4ccccc4c3c(C)c2c1, the TGI rises from 64.5 µM to greater than 100 µM.

Compared with CCc1c(O)c(O)c(C(C)=O)c2c(O)c(-c3c(C)cc4c(CC)c(O)c(O)c(C(C)=O)c4c3O)c(C)cc12, CC(C)(C)OC(=O)NC(CSSCC(NC(=O)OC(C)(C)C)C(=O)O)C(=O)O (centres undefined) is higher in TGI: 14.9 µM for the first, greater than 100 µM for the second.

Going from COc1c2occc2c(N)c2ccc(=O)oc12 to CC(C)N1CCN(c2ccc(OCC3COC(Cn4cncn4)(c4ccc(Cl)cc4Cl)O3)cc2)CC1 (centres undefined), the TGI falls from greater than 100 µM to 33.3 µM.

tested on: HOP-18 NSCLC; test: NCI-60 cell line screen, 48 h

For CCCC(=O)OC[n+]1ccc2c(C)c3[nH]c4ccccc4c3c(C)c2c1, the TGI was 2.99 µM.

tested on: HOP-62 NSCLC; test: NCI-60 cell line screen, 48 h

First: C=CCn1c(=O)ccn(/C(=C/C(=O)OCC)C(=O)OCC)c1=O
Second: COc1c(C)c(OCC=C(C)C)cc(CO)c1CO
The TGI of the first is lower: 44.4 µM for the first, greater than 100 µM for the second.

[N-]=[N+]=NC1(c2ccccc2)C(=O)c2cccc3c2N(CCC3)C1=O (centres undefined) and COc1c2occc2c(N)c2ccc(=O)oc12 cannot be ordered by TGI: greater than 100 µM for the first, greater than 100 µM for the second.

Compared with CCc1c(O)c(O)c(C(C)=O)c2c(O)c(-c3c(C)cc4c(CC)c(O)c(O)c(C(C)=O)c4c3O)c(C)cc12, CC(C)(C)OC(=O)NC(CSSCC(NC(=O)OC(C)(C)C)C(=O)O)C(=O)O (centres undefined) is higher in TGI: 27.4 µM for the first, greater than 100 µM for the second.

Compound CC(C)N1CCN(c2ccc(OCC3COC(Cn4cncn4)(c4ccc(Cl)cc4Cl)O3)cc2)CC1 (centres undefined) has a TGI of 28.5 µM.

tested on: HOP-92 NSCLC; test: NCI-60 cell line screen, 48 h

First: C=CCn1c(=O)ccn(/C(=C/C(=O)OCC)C(=O)OCC)c1=O
Second: [N-]=[N+]=NC1(c2ccccc2)C(=O)c2cccc3c2N(CCC3)C1=O (centres undefined)
The TGI of the first is lower: 9.15 µM for the first, greater than 100 µM for the second.
